This note sets out measurements from patent US11661427B2, “Tetrazole derivatives as TRPA1 inhibitors” (Boehringer Ingelheim International GmbH, priority 2020, dated 2023).

In one data set the target is human TRPA1 ion channel (Homo sapiens (Human), UniProt O75762). Kind of data set: Assay A: TRPA1 assay (FLIPR calcium assay, AITC agonism, HEK293 cells over-expressing human TRPA1). In kind it is cell-based. To be noted: AITC 10 μM, FLIPRtetra, AUC after AITC addition, read-out: hTRPA1 IC50. On the procedure: A human HEK293 cell line over-expressing the human TRPA1 ion channel (Perkin Elmer, Product No. AX-004-PCL) is used as a test system for compound efficacy and potency. Compound activity is determined by measuring the effect of compounds on intracellular calcium concentration induced by AITC (Allylisothiocyanat) agonism in a FLIPRtetra system (Molecular Devices).
Cells are grown in culture medium (MEM/EBSS medium with 10% FCS and 0.4 mg/ML Geneticin). […] For sub-culturing cells are detached from flasks by Versene. At the day before the assay, cells are detached, washed twice with medium (MEM/EBSS medium with 10% FCS) and 20000 cells in 20 μl/well are seeded to Poly D-Lysin biocoated 384-well plates (black, clear bottom, Cat. 356697) from Corning. Plates are incubated for 24 hours at 37° C./5% CO2 before use in the assay.
The test compounds are dissolved in 100% DMSO at a concentration of 10 mM and in a first step diluted in DMSO to a concentration of 5 mM, followed by serial dilution steps in 100% DMSO. Dilution factor and number of dilution steps may vary according to needs. Typically 8 different concentrations by 1:5 dilutions are prepared, further intermediate dilutions (1:20) of the substances are carried out with HBSS/HEPES buffer (1×HEPES, Cat. 14065 from Gibco, 20 mM HEPES, Cat. 83264 from SIGMA, 0.1% BSA Cat. 11926 from Invitrogen, pH 7.4
At the assay day cells are washed 3× with assay puffer, 20 μL buffer remaining in the wells after washing. 10 μL Ca6 kit (Cat. R8191 MolecularDevices) loading buffer in HBSS/HEPES is added to the cells and the plates are incubated with lid for 120 minutes at 37°/5% CO2. 10 μL of compound or controls in HBSS/HEPES buffer/5% DMSO from the intermediate dilution plate are carefully added to the wells. […] Finally 10 μL of the agonist AITC 50 μM dissolved in HBSS/HEPES buffer/0.05% DMSO (final concentration 10 μM) is added to the wells followed by an additional read on the FLIPRtetra device for 10 minutes. The area under the signal curve (AUC) after AITC addition is used for IC50/% inhibition calculations
Each assay microtiter plate contains wells with vehicle (1% DMSO) controls instead of compound as controls for AITC induced luminescence (100% CTL; high controls) and wells with vehicle controls without AITC as controls for non-specific changes in luminescence (0% CTL; low controls).
The analysis of the data is performed by the calculation of the area under signal curve of the individual wells. Based on this values the % value for the measurement of each substance concentration is calculated (AUC(sample)−AUC(low))*100/(AUC(high)−AUC(low)) using MegaLab software (in house development). The IC50 values are calculated from the % control values using MegaLab software. Calculation: [y=(a−d)/(1+(x/c)^B)+d], a=low value, d=high value; x=conc M; c=IC50 M; b=hill; y=% ctrl

Data set [1] can be described thus: Assay B: Microsomal clearance. It counts as in vitro ADME. To be noted: pooled liver microsomes, 1 μM test compound, 37° C.; Tables 5 and 6 of the same assay are headed human LM [% Qh]. On the procedure:
Evaluation of Microsomal Clearance Assay B: Microsomal Clearance:
The metabolic degradation of the test compound is assayed at 37° C. with pooled liver microsomes. The final incubation volume of 100 μl per time point contains TRIS buffer pH 7.6 at RT (0.1 M), magnesium chloride (5 mM), microsomal protein (1 mg/ml) and the test compound at a final concentration of 1 μM.
Following a short preincubation period at 37° C., the reactions are initiated by addition of beta-nicotinamide adenine dinucleotide phosphate, reduced form (NADPH, 1 mM) and terminated by transferring an aliquot into solvent after different time points (0, 5, 15, 30, 60 min). Additionally, the NADPH-independent degradation is monitored in incubations without NADPH, terminated at the last time point. The [%] remaining test compound after NADPH independent incubation is reflected by the parameter c(control) (metabolic stability). The quenched incubations are pelleted by centrifugation (10000 g, 5 min).
An aliquot of the supernatant is assayed by LC-MS/MS for the amount of parent compound. The half-life (t1/2 INVITRO) is determined by the slope of the semilogarithmic plot of the concentration-time profile.
Background: Liver microsomes are a subcellular fraction often used to study metabolism.

A short description of data set [2]: Assay C: Hepatocyte clearance. It counts as in vitro ADME, human. To be noted: hepatocyte suspension, 5% species serum, 1 μM test compound, six hours. On the procedure:
Evaluation of Hepatocyte Clearance Assay C: Hepatocyte Clearance
The metabolic degradation of the test compound is assayed in a hepatocyte suspension. Hepatocytes (cryopreserved) are incubated in Dulbecco's modified eagle medium (supplemented with 3.5 μg glucagon/500 mL, 2.5 mg insulin/500 mL and 3.75 mg/500 mL hydrocortison) containing 5% species serum.
Following a 30 min preincubation in an incubator (37° C., 10% CO2) 5 μl of test compound solution (80 μM; from 2 mM in DMSO stock solution diluted 1:25 with medium) are added into 395 μl hepatocyte suspension (cell density in the range 0.25-5 Mio cells/mL depending on the species, typically 1 Mio cells/mL; final concentration of test compound 1 μM, final DMSO concentration 0.05%).
The cells are incubated for six hours (incubator, orbital shaker) and samples (25 μl) are taken at 0, 0.5, 1, 2, 4 and 6 hours. Samples are transferred into acetonitrile and pelleted by centrifugation (5 min). The supernatant is transferred to a new 96-deepwell plate, evaporated under nitrogen and resuspended.
Decline of parent compound is analyzed by HPLC-MS/MS
CLint is calculated as follows CL_[…]=Dose/AUC=(C0/CD)/(AUD+clast/k)×1000/60. C0: initial concentration in the incubation [μM], CD: cell density of vital cells [10e6 cells/mL], AUD: area under the data [μM×h], clast: concentration of last data point [μM], k: slope of the regression line for parent decline [h−1].
The calculated in vitro hepatic intrinsic clearance can be scaled up to the intrinsic in vivo hepatic Clearance and used to predict hepatic in vivo blood clearance (CL) by the use of a liver model (well stirred model).

The structures appear in SMILES notation.

Sequence of human TRPA1 ion channel (O75762 whole entry): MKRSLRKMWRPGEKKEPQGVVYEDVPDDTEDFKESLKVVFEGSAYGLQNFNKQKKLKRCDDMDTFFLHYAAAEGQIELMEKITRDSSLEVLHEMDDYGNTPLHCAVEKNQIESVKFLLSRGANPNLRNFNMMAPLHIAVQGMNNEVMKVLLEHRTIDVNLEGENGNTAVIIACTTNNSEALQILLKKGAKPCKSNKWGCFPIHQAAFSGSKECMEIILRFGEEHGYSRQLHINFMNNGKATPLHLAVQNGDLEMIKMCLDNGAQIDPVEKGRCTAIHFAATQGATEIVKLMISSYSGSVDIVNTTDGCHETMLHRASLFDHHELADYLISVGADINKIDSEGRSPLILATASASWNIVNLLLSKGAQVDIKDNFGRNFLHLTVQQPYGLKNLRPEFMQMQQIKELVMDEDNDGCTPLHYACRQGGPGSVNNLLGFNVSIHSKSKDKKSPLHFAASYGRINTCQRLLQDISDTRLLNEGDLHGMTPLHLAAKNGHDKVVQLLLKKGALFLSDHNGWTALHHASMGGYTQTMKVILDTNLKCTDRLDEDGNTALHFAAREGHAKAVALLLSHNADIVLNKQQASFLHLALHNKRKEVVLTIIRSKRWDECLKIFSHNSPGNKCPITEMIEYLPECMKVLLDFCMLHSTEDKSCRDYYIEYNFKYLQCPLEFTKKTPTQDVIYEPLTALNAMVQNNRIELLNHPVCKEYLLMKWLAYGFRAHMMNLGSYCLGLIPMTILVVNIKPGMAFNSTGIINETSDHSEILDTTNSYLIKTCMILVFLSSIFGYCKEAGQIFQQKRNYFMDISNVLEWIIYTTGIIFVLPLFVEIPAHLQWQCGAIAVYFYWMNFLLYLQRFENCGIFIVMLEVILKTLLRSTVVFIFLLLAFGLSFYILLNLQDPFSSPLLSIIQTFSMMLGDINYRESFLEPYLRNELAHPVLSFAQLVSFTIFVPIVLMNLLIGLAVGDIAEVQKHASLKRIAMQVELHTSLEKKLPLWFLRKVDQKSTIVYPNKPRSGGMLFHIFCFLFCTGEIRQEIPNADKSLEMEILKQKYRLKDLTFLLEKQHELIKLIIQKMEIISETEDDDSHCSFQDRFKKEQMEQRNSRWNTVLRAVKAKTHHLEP

Regarding `Cc1ccc([C@@H](O)Cn2nnc(Cn3cnc4oc(C)c(C(N)=O)c4c3=O)n2)cc1` [Example 1, 3-({2-[(2R)-2-hydroxy-2-(4-methylphenyl)ethyl]-2H-1,2,3,4-tetrazol-5-yl}methyl)-6-methyl-4-oxo-3H,4H-furo[2,3-d]pyrimidine-5-carboxamide], the 50% inhibitory concentration (IC50) at human TRPA1 ion channel was determined as 24 nM. For the same compound, the Assay B result (column head not printed in Table 4) in data set [1] was < 23%. Also, the “human Hepatocytes” value in data set [2] is 4 % Qh.

On to `Cc1c(C(N)=O)oc2ncn(Cc3nnn(C[C@H](O)c4cc5ccccc5s4)n3)c(=O)c12` [Example 2], for which the IC50 at human TRPA1 ion channel came out at 10 nM. Also, the Assay B result (column head not printed in Table 4) in data set [1] is < 23%. In data set [2], the “human Hepatocytes” value is listed as 23 % Qh.

`Cc1c(C(N)=O)oc2ncn(Cc3nnn(C[C@H](O)c4ccc(Cl)s4)n3)c(=O)c12` [Example 3]: the IC50 on human TRPA1 ion channel turned out to be 10 nM. The Assay B result (column head not printed in Table 4) in data set [1] is < 23%. Also, the “human Hepatocytes” value in data set [2] was found to be 5 % Qh.

Turning to `Cc1oc2ncn(Cc3nnn(C[C@H](O)c4cc5ccc(F)cc5s4)n3)c(=O)c2c1C(N)=O` [Example 4], the 50% inhibitory concentration (IC50) at human TRPA1 ion channel is 10 nM. Moreover, the Assay B result (column head not printed in Table 4) in data set [1] was < 23%. Also, the “human Hepatocytes” value in data set [2] is 30 % Qh.

Turning to `Cc1oc2ncn(Cc3nnn(C[C@H](O)c4cc5ccccc5s4)n3)c(=O)c2c1C(N)=O` [Example 5], the IC50 at human TRPA1 ion channel was found to be 11 nM. The Assay B result (column head not printed in Table 4) in data set [1] is < 23%. In addition, the “human Hepatocytes” value in data set [2] was 23 % Qh.

Turning to `Cc1c(C(N)=O)oc2ncn(Cc3nnn(C[C@H](O)c4cc5cc(Cl)ccc5o4)n3)c(=O)c12` [Example 6], on human TRPA1 ion channel, the IC50 is 13 nM. The Assay B result (column head not printed in Table 4) in data set [1] was < 23%. Besides, in data set [2], the “human Hepatocytes” value came out at 24 % Qh.

Turning to `Cc1oc2ncn(Cc3nnn(C[C@H](O)c4ccc(Cl)s4)n3)c(=O)c2c1C(N)=O` [Example 7], the IC50 at human TRPA1 ion channel was determined as 20 nM. Besides, the Assay B result (column head not printed in Table 4) in data set [1] was < 23%. The “human Hepatocytes” value in data set [2] worked out at 15 % Qh.

In the case of `Cc1ccc([C@@H](O)Cn2nnc(Cn3cnc4oc(C(N)=O)c(C)c4c3=O)n2)cc1` [Example 8], the IC50 at human TRPA1 ion channel amounted to 21 nM. In addition, the Assay B result (column head not printed in Table 4) in data set [1] is < 23%. In data set [2], the “human Hepatocytes” value is 14 % Qh.

For `Cc1oc2ncn(Cc3nnn(C[C@H](O)c4ccc(Cl)cc4)n3)c(=O)c2c1C(N)=O` [Example 9], at human TRPA1 ion channel, the IC50 came to 23 nM. Also, in data set [1], the Assay B result (column head not printed in Table 4) was < 23%. The “human Hepatocytes” value in data set [2] turned out to be 16 % Qh.

Turning to `Cc1c(C(N)=O)oc2ncn(Cc3nnn(C[C@H](O)c4ccc(Cl)cc4)n3)c(=O)c12` [Example 10], on human TRPA1 ion channel, the IC50 was found to be 23 nM. The Assay B result (column head not printed in Table 4) in data set [1] was < 23%. Moreover, in data set [2], the “human Hepatocytes” value is recorded as <4 % Qh.

On to `Cc1oc2ncn(Cc3nnn(C[C@H](O)c4cc5ccccc5o4)n3)c(=O)c2c1C(N)=O` [Example 11], for which, at human TRPA1 ion channel, the IC50 stood at 26 nM. Moreover, in data set [1], the Assay B result (column head not printed in Table 4) is < 23%. Also, the “human Hepatocytes” value in data set [2] came out at 8 % Qh.

Turning to `Cc1oc2ncn(Cc3nnn(C[C@H](O)c4ccc(Br)cc4)n3)c(=O)c2c1C(N)=O` [Example 12], the concentration for half-maximal inhibition (IC50) at human TRPA1 ion channel is 29 nM. Moreover, the Assay B result (column head not printed in Table 4) in data set [1] is < 23%. Besides, the “human Hepatocytes” value in data set [2] was 16 % Qh.

As for `Cc1oc2ncn(Cc3nnn(C[C@H](O)c4cc5cccc(F)c5o4)n3)c(=O)c2c1C(N)=O` [Example 13], the half-inhibitory concentration (IC50) at human TRPA1 ion channel stood at 49 nM. This compound also had an Assay B result (column head not printed in Table 4) in data set [1] of 26%. In addition, in data set [2], the “human Hepatocytes” value was determined as 22 % Qh.

For `Cc1oc2ncn(Cc3nnn(C[C@H](O)c4cc5cc(Cl)ccc5o4)n3)c(=O)c2c1C(N)=O` [Example 14], the IC50 at human TRPA1 ion channel is 12 nM. Moreover, the Assay B result (column head not printed in Table 4) in data set [1] was 42%. Moreover, the “human Hepatocytes” value in data set [2] was 42 % Qh.

For the compound `Cc1oc2ncn(Cc3nnn(C[C@H](O)c4cc5cc(F)ccc5o4)n3)c(=O)c2c1C(N)=O` [Example 15], the IC50 on human TRPA1 ion channel was 18 nM. In addition, the Assay B result (column head not printed in Table 4) in data set [1] was < 23%. Also, the “human Hepatocytes” value in data set [2] amounted to 21 % Qh.

In general, IC50 refers to the concentration needed to halve the response being measured.
